Measured values reported in ChEMBL document CHEMBL1201862, “PubChem BioAssay data set” (2004).
The source made the active and inactive calls.

Columns and labels:
Aminopeptidase N = target: T1, Aminopeptidase N (Plasmodium falciparum FcB1/Columbia, UniProt O96935); assay: P. falciparum M1AAP inhibitors, biochemical, fluorogenic H-Leu-NHMec substrate, 1536-well (AID 1445); design: species or system Plasmodium falciparum 3D7, 3D7
T1 sequence (O96935 whole entry): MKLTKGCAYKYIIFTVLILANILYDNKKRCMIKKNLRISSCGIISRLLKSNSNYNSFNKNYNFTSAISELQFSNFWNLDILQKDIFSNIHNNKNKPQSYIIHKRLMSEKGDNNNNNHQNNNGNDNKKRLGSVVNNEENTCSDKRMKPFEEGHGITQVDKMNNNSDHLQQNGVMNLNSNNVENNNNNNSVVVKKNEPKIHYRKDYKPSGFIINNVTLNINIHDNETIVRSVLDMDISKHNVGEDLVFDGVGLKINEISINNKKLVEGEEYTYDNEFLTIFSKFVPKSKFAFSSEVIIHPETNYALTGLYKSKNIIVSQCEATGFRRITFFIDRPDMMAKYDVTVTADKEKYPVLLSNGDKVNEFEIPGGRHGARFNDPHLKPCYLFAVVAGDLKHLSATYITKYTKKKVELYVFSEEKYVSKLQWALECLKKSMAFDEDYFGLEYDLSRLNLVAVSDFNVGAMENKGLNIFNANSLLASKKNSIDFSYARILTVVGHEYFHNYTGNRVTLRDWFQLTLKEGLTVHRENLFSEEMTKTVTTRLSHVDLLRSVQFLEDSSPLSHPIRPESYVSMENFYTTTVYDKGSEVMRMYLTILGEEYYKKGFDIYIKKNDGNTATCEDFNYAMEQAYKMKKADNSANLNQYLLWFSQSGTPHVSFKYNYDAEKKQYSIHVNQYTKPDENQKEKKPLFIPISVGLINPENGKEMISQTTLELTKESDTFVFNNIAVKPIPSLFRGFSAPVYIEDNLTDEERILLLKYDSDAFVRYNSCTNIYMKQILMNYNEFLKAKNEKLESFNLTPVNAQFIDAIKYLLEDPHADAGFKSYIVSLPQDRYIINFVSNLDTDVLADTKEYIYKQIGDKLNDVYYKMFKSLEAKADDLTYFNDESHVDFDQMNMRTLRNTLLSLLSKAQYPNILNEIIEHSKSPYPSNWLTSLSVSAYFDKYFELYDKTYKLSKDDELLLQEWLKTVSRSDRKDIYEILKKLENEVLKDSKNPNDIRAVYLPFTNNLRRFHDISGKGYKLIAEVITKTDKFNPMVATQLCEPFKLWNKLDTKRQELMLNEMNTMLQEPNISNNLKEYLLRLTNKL

[1] = target: T2, Runt-related transcription factor 1/Core-binding factor subunit beta (Homo sapiens, UniProt Q01196+Q13951); assay: inhibitors of RUNX1 Runt–CBFb-SMMHC binding, biochemical, TR-FRET (AID 1438); format: protein assay
[2] = target: T2, Runt-related transcription factor 1/Core-binding factor subunit beta; assay: inhibitors of RUNX1 Runt–CBFb-SMMHC binding, primary screen, biochemical, FRET, Cerulean-Runt, Venus-CBFb-SMMHC, uHTS (AID 1434); format: protein assay;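 also: partner is the CBFb-SMMHC leukemia fusion protein rather than wild-type CBFb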
[3] = target: Sphingosine 1-phosphate receptor 5 (Homo sapiens, UniProt Q9H228); assay: Late stage counterscreen assay for S1P4 antagonists: Fluorescence dose response cell-based screening assay for antagonists of the Sphingosine 1-Phosphate Receptor 5 (S1P5). [Related pubchem assays (depositor defined):AID1510, AID1524, AID1692, AID1853, AID2332, AID489009, AID489017]; format: functional
[4] = target: Sphingosine 1-phosphate receptor 3 (Homo sapiens, UniProt Q99500); assay: Late stage counterscreen assay for S1P4 antagonists: Fluorescence dose response cell-based screening assay for antagonists of the Sphingosine 1-Phosphate Receptor 3 (S1P3). [Related pubchem assays (depositor defined):AID1510, AID1524, AID1692, AID1853, AID2332, AID489009, AID489017]; format: functional
[5] = target: Sphingosine 1-phosphate receptor 1 (Homo sapiens, UniProt P21453); assay: Late stage counterscreen assay for S1P4 antagonists: Fluorescence dose response cell-based screening assay for antagonists of the Sphingosine 1-Phosphate Receptor 1 (S1P1). [Related pubchem assays (depositor defined):AID1510, AID1524, AID1692, AID1853, AID2332, AID489009, AID489017]; format: functional
[6] = target: Sphingosine 1-phosphate receptor 2 (Homo sapiens, UniProt O95136); assay: Late stage counterscreen assay for S1P4 antagonists: Fluorescence dose response cell-based screening assay for antagonists of the Sphingosine 1-Phosphate Receptor 2 (S1P2). [Related pubchem assays (depositor defined):AID1510, AID1524, AID1692, AID1853, AID2332, AID489009, AID489017]; format: functional
[7] = target: T3, Intestinal-type alkaline phosphatase (Homo sapiens, UniProt P09923); assay: human intestinal alkaline phosphatase activators, dose response, biochemical, luminescence, uHTS hits (AID 463120); format: functional
[8] = target: T3, Intestinal-type alkaline phosphatase; assay: Dose Response confirmation of uHTS hits from a small molecule inhibitors of human intestinal alkaline phosphatase via a luminescent assay. [Related pubchem assays (depositor defined):AID2544, AID2574]; format: functional
[9] = target: T4, Tyrosine-protein phosphatase non-receptor type 7 (Homo sapiens, UniProt P35236); format: functional
T4 sequence (P35236 whole entry): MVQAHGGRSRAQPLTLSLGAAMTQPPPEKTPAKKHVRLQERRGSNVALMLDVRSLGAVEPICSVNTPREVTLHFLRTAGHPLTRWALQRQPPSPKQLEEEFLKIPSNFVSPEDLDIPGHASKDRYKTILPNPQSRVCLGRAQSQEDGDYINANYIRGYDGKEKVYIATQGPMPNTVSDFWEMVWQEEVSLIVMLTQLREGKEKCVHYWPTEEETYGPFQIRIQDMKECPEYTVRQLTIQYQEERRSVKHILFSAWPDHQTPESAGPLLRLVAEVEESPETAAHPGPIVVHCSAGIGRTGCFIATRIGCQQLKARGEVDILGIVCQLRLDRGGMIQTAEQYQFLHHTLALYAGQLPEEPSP

[10] = target: T5, Tyrosine-protein phosphatase non-receptor type 22 (Homo sapiens, UniProt Q9Y2R2); format: functional
T5 sequence (Q9Y2R2 whole entry): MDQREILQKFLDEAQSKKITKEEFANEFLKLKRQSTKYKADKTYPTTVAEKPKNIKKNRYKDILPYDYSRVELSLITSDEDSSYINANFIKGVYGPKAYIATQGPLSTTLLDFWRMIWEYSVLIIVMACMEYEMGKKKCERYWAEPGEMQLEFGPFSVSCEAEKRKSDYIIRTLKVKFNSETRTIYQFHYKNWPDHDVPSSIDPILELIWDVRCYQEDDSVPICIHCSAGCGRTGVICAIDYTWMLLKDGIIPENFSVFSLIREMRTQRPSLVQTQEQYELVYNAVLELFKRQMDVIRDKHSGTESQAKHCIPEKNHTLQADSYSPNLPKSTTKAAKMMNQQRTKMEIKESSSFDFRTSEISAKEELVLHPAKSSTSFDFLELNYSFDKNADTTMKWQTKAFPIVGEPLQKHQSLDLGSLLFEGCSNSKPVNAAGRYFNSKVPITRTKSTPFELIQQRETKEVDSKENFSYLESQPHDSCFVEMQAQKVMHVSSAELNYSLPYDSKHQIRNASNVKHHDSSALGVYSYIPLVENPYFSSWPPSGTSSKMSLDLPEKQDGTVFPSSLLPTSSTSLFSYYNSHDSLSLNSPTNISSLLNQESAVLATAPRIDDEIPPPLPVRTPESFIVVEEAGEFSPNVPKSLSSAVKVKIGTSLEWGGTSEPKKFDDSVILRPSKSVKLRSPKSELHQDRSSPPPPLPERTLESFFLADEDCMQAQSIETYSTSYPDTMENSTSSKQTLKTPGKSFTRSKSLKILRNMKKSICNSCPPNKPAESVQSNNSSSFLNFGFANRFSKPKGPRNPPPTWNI

[11] = target: T5, Tyrosine-protein phosphatase non-receptor type 22; format: functional; remark: listed apart in the source
[12] = target: Signal transducer and activator of transcription 3 (Homo sapiens, UniProt P40763); assay: STAT3 inhibitors, late-stage profile, late-stage follow-up, cell-based, STAT1 panel, qPCR, cytotoxicity, panel member STAT3 Inhibition (AID 2078)
[13] = target: Signal transducer and activator of transcription 1-alpha/beta (Homo sapiens, UniProt P42224); assay: STAT3 inhibitors, late-stage profile, late-stage follow-up, cell-based, STAT1 panel, qPCR, cytotoxicity, panel member STAT1 Inhibition (AID 2078)
[14] = target: Voltage-dependent T-type calcium channel subunit alpha-1H (Homo sapiens, UniProt O95180); assay: Cav3.2 T-type channel blockers, cell-based, SynthLib3 library, HEK293 Cav3.2, fluorescence (AID 493041); format: functional

T2 sequence (Q01196 whole entry, the tested form may be a part): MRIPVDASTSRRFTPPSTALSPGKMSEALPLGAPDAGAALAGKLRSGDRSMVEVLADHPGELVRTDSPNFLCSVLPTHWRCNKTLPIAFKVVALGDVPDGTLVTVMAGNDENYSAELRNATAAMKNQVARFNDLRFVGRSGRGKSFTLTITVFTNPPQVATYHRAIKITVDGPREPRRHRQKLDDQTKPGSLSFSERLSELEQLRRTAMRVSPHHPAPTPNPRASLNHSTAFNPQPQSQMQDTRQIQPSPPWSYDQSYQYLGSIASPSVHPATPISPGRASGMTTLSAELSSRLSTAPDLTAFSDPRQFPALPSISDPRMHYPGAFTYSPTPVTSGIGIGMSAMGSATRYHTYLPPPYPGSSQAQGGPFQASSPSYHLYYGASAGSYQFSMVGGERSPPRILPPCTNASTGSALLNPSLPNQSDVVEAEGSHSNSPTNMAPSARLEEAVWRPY
T2 sequence (Q13951 whole entry, the tested form may be a part): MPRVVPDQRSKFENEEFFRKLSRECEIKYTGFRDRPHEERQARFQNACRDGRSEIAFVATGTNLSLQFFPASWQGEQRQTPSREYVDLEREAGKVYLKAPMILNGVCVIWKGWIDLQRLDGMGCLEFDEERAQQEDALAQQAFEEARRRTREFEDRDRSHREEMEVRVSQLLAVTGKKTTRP
T3 sequence (P09923 whole entry): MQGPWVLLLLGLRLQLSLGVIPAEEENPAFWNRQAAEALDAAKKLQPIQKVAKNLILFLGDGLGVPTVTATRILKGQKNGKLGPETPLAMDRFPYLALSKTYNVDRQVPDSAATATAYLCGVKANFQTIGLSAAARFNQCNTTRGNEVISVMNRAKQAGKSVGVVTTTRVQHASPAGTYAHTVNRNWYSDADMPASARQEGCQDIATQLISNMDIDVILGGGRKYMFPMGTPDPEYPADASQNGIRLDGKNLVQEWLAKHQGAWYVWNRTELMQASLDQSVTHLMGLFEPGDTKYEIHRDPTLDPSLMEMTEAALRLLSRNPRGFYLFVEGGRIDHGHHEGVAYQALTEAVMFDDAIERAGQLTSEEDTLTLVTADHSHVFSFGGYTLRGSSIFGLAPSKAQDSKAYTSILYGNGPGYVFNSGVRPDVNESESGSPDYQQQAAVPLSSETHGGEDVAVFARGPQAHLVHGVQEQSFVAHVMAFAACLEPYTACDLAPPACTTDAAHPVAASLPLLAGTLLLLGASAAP
Signal transducer and activator of transcription 3, sequence (P40763 whole entry): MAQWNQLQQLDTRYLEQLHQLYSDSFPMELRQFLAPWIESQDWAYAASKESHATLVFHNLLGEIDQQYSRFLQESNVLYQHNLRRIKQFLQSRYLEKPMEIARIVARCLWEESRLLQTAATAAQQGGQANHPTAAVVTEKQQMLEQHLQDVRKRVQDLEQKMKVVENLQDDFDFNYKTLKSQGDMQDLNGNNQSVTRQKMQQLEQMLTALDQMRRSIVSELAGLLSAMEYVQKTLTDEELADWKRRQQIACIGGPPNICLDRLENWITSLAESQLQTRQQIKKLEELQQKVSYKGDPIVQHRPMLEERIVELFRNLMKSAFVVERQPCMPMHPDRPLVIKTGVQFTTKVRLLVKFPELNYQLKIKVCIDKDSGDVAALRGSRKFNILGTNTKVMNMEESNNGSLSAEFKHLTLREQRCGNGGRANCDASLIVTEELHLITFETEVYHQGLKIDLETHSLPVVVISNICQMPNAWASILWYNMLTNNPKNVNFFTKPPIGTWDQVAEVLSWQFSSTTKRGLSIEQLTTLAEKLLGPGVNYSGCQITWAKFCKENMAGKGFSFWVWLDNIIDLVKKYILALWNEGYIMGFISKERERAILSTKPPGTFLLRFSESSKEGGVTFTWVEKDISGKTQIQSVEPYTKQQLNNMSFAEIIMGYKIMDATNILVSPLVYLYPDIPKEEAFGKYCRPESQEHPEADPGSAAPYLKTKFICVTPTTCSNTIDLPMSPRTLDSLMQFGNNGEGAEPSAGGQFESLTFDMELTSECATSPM
Sphingosine 1-phosphate receptor 2, sequence (O95136 whole entry): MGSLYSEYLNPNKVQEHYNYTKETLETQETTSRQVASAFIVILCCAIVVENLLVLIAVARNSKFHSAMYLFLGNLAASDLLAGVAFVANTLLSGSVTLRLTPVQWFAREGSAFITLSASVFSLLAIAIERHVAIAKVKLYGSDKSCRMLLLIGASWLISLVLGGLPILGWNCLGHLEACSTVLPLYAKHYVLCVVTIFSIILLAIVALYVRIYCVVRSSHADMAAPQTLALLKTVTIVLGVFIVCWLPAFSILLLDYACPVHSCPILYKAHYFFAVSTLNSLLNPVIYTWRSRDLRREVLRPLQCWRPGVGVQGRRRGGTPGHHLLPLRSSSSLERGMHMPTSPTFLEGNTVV
Signal transducer and activator of transcription 1-alpha/beta, sequence (P42224 whole entry): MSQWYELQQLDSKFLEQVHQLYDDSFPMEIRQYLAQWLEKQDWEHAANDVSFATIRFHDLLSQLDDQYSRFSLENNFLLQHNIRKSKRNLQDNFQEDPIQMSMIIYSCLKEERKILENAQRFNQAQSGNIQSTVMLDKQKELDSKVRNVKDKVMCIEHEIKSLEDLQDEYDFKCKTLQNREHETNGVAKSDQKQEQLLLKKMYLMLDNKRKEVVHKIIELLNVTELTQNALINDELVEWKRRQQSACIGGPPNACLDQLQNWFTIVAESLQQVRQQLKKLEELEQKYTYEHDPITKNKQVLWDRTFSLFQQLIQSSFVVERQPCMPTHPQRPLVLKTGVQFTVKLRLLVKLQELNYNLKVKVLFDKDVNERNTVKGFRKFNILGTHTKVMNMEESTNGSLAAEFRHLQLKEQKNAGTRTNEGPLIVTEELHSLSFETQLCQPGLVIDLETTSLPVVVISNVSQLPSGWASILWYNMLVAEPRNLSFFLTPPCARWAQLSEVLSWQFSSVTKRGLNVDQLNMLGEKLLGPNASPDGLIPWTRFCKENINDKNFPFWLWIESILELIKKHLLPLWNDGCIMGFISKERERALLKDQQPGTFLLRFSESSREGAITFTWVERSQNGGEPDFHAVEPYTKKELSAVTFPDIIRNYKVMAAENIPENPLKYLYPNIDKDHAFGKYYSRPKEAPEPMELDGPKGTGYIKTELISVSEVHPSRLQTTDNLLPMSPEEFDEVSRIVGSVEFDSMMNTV
Sphingosine 1-phosphate receptor 1, sequence (P21453 whole entry): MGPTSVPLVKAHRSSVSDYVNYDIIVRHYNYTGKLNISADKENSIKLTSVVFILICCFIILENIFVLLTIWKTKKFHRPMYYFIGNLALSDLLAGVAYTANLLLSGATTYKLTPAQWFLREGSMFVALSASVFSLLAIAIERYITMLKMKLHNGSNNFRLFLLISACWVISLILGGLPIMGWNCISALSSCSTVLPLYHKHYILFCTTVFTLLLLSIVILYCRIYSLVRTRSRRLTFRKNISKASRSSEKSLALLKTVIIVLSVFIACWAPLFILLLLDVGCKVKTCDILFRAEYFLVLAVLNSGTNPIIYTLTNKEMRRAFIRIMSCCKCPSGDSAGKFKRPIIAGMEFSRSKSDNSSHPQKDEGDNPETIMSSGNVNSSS
Sphingosine 1-phosphate receptor 3, sequence (Q99500 whole entry): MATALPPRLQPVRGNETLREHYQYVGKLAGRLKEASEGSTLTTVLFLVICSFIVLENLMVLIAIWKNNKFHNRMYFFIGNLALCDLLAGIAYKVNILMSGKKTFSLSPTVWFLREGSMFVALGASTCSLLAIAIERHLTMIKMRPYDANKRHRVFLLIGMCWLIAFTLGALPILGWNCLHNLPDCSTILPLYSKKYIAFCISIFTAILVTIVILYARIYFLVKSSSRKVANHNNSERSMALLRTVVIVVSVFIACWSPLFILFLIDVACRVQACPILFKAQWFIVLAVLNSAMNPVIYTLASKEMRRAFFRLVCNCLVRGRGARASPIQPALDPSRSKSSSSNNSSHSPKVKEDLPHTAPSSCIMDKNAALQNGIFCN
Sphingosine 1-phosphate receptor 5, sequence (Q9H228 whole entry): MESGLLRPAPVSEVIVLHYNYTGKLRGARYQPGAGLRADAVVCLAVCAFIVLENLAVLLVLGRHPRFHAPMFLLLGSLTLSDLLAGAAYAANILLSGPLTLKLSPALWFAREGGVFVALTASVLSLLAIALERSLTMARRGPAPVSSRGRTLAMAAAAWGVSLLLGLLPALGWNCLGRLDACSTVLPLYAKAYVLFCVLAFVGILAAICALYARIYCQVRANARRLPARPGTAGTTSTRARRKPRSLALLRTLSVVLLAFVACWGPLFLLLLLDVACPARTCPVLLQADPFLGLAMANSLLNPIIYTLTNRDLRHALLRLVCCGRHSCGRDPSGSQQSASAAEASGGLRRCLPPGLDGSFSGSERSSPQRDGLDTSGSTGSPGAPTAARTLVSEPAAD

Question: CC(C)OCCCn1c(-c2ccco2)nc2nc3ccccc3nc21 was tested. Which IC50 (Aminopeptidase N) did it give?
Answer: 92.6 µM (active)

Question: And the IC50 [1]?
Answer: > 100 µM (inactive)

Question: And the IC50 [2]?
Answer: 7.07 µM (active)

Question: Which IC50 [3] does the source give for Cc1ccc(S(C)(=O)=O)c(C)c1NC(=O)c1ccc(-c2cc(Cl)ccc2Cl)o1 here?
Answer: > 25 µM (inactive)

Question: What about the IC50 [4] of the same molecule?
Answer: 15.8 µM (inactive)

Question: What about the IC50 [5] of the same molecule?
Answer: > 25 µM (inactive)

Question: And the IC50 [6]?
Answer: 13.8 µM (inactive)

Question: For CCC(OC(=O)C1=Cc2ccccc2OC1)C(=O)NC1CCCC1 (stereo not given), which EC50 [7] is on record?
Answer: > 100 µM (inactive)

Question: What about the IC50 [8] of the same molecule?
Answer: > 100 µM (inactive)

Question: With COc1ccc(S(=O)(=O)N2CCCCCC2)cc1C(=O)OCc1c(C)noc1C as the molecule, how does the IC50 [9] read?
Answer: > 79.4 µM (inactive)

Question: And the IC50 [10]?
Answer: > 79.4 µM (inactive)

Question: And the IC50 [11]?
Answer: > 79.4 µM (inactive)

Question: With c1ccc(CC2CCN(c3ncnc4scc(-c5cccs5)c34)CC2)cc1 as the molecule, how does the IC50 [12] read?
Answer: 16.7 µM (inactive)

Question: And the IC50 [13]?
Answer: > 55.7 µM (inactive)

Question: How did the EC50 [14] turn out when CCC(C)CN1C[C@@H]2C(CNC(=O)c3cc(Cl)cc(Cl)c3)[C@@H]2C1 (stereo not given in full) was run?
Answer: 4 µM (active)
